PubChem BioAssay (NCI)
Values joined by “and” are separate entries in the source; they are usually repeats but may differ in a detail not shown here. Identical values can stand only once.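 Growth conditions: 96-well plates. Treatment: test compound, 48 hours, 5 concentrations. Analysis: linear interpolation between bracketing concentrations; unreached endpoints set to highest concentration. GI50 marks 50% less growth. TGI: total growth inhibition.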

Columns and labels:
Test in all cases: DTP human tumour cell line panel, 48 h
U251 CNS = test system: U251 CNS
CCRF-CEM leukemia = test system: CCRF-CEM leukemia
ACHN renal = test system: ACHN renal
LOX IMVI melanoma = test system: LOX IMVI melanoma
HCT-15 colon = test system: HCT-15 colon
NCI-H23 lung = test system: NCI-H23 lung
SN12C renal = test system: SN12C renal
MOLT-4 leukemia = test system: MOLT-4 leukemia
UO-31 renal = test system: UO-31 renal
T-47D breast = test system: T-47D breast

Row | SMILES | GI50 (U251 CNS) | TGI (U251 CNS) | GI50 (CCRF-CEM leukemia) | TGI (CCRF-CEM leukemia) | GI50 (ACHN renal) | TGI (ACHN renal) | GI50 (LOX IMVI melanoma) | TGI (LOX IMVI melanoma) | GI50 (HCT-15 colon) | TGI (HCT-15 colon) | GI50 (NCI-H23 lung) | TGI (NCI-H23 lung) | GI50 (SN12C renal) | TGI (SN12C renal) | GI50 (MOLT-4 leukemia) | TGI (MOLT-4 leukemia) | GI50 (UO-31 renal) | TGI (UO-31 renal) | GI50 (T-47D breast) | TGI (T-47D breast)
1 | O=C1/C(=C/c2ccc(Cl)cc2)CN(Cc2cn(CCCNc3ccnc4cc(Cl)ccc34)nn2)C/C1=C\c1ccc(Cl)cc1 | 0.269 µM | 0.9 µM | 0.426 µM | > 20.5 µM | 1.45 µM | 2.84 µM | 0.249 µM | 0.719 µM | 0.283 µM | 0.926 µM | 1.26 µM | 3.82 µM | 0.96 µM | 2.77 µM | 0.878 µM | > 24.5 µM | 1.16 µM | 2.45 µM | 1.95 µM | 6.37 µM
2 | CS(=O)(=O)Nc1cc(-c2ccc3ncc(C#N)c(Nc4ccc(F)c(Cl)c4)c3c2)cnc1Cl | 0.098 µM | 1.19 µM | 0.0911 µM | > 31 µM | 0.304 µM | > 100 µM | 0.169 µM | 0.698 µM | 0.167 µM | 4.91 µM | 0.108 µM | 3.91 µM | 0.133 µM | > 100 µM | 0.0783 µM | 0.487 µM | 0.125 µM | 1.03 µM | 0.0351 µM | 0.403 µM
3 | Cc1cc(O)ccc1C1(c2ccc(O)cc2C)OC(=O)c2ccccc21 | 19.9 µM | 36.6 µM | 24.4 µM | 67.7 µM | 16 µM | 31.8 µM | 18.5 µM | 37.7 µM | 16.3 µM | 30.7 µM | 16.6 µM | 33.4 µM | 19.5 µM | 39.9 µM | 23.8 µM | 58.9 µM | 18.1 µM | 36.7 µM | 20.2 µM | 41.3 µM
4 | NC(=O)c1c[nH]c2ncnc(N)c12 | > 100 µM | > 100 µM | 29.5 µM | > 100 µM | 44.1 µM | > 100 µM | 48.6 µM | > 100 µM | 41.8 µM | > 100 µM | > 100 µM | > 100 µM | 71.6 µM | > 100 µM | 32.9 µM | > 100 µM | 22.4 µM | 80.9 µM | 35.3 µM | > 100 µM
5 | CC(C)c1cnc(-c2cc(Cl)ccc2F)cc1Nc1ccncc1C(=O)NC(CO)CO | 14.9 µM | 33.9 µM | 11.6 µM | 54.2 µM | 11.1 µM | 29 µM | 13.7 µM | 27.9 µM | 12.9 µM | 26.9 µM | 13.9 µM | 33.5 µM | 8.13 µM | 23.7 µM | 11.7 µM | 39.3 µM | 2.87 µM | 21.9 µM | 4.5 µM | 34.8 µM
6 | COc1ccc2[nH]c(C(=O)OCc3ccc4c(Br)cc(Br)c(O)c4n3)cc2c1 | 1.49 µM | 2.92 µM | 0.331 µM | > 100 µM | 0.343 µM | 1.35 µM | 0.188 µM | 0.453 µM | 0.355 µM | 1.23 µM | 1.38 µM | 2.99 µM | 0.617 µM | 2.02 µM | 0.452 µM | 2.17 µM | 0.36 µM | 1.85 µM | 1.15 µM | 3.57 µM
7 | COc1ccccc1CNCCCN1C(=O)c2ccc3c4c(ccc(c24)C1=O)C(=O)N(CCCNCCCCNCCCN)C3=O | 0.339 µM | 1.3 µM | 0.425 µM | 19.9 µM | 0.747 µM | 4.44 µM | 0.3 µM | 1.57 µM | 1.75 µM | 5.73 µM | 0.356 µM | 2.05 µM | 0.319 µM | 1.5 µM | 0.57 µM | 8.31 µM | 2.66 µM | 16.2 µM | 0.214 µM | 0.49 µM
8 | Cn1c2c(c3ccccc31)CCN1C[C@@H]3CCCC[C@H]3C[C@@H]21 | 2.51 µM | > 100 µM | 4.77 µM | > 100 µM | 4.32 µM | > 100 µM | 2.99 µM | > 37.3 µM | 2.55 µM | > 100 µM | 3.55 µM | > 100 µM | 3.82 µM | > 100 µM | 5.55 µM | > 100 µM | 2.2 µM | 13.7 µM | 14.1 µM | > 100 µM
9 | CCOc1cc(Cl)c(C(C)NC(=O)c2cccc(OC)c2)cc1OCC (stereo not given) | 8.18 µM | > 100 µM | 11.7 µM | > 100 µM | 20.1 µM | > 100 µM | 14.2 µM | > 100 µM | 4.06 µM | > 100 µM | 21.7 µM | > 100 µM | 28.9 µM | > 100 µM | 5.91 µM | > 100 µM | 13.9 µM | > 100 µM | 7.06 µM | > 100 µM
10 | CN1C(=O)C(N=Nc2ccc([N+](=O)[O-])cc2)SC1=S (stereo not given) | 3.3 µM and 7.63 µM | 70.8 µM and > 100 µM | 6.51 µM | > 100 µM | 3.19 µM and 9.51 µM | 99 µM and 62.4 µM | 2.56 µM and 9.05 µM | 48.5 µM and 98.4 µM | 2.63 µM and 6.8 µM | > 100 µM | 3.89 µM and 7.46 µM | 77.1 µM and 76.9 µM | 4.39 µM and 9.34 µM | > 100 µM and 75.9 µM | 5.82 µM and 5.81 µM | > 100 µM | 1.26 µM and 3.55 µM | 8.82 µM and 74.7 µM | 2.71 µM and 4.26 µM | > 100 µM and 47.5 µM
11 | Cc1ccc2ncnc(N(C)C3CCCCC3)c2c1 | 59.7 µM | > 100 µM | 34.7 µM | > 100 µM | 29 µM | > 100 µM | 21.7 µM | 68.3 µM | 27 µM | 88.7 µM | 26.5 µM | 74.4 µM | 39.6 µM | > 100 µM | 14.4 µM | 63.6 µM | 24.5 µM | > 100 µM | 76.9 µM | > 100 µM
12 | Cn1cc(-c2csc(-c3ccccc3)n2)c2cccnc21 | 13.6 µM | 28 µM | 22.8 µM | > 100 µM | 17.1 µM | 52.3 µM | 12.8 µM | 25.4 µM | 12.8 µM | 31.7 µM | 16.2 µM | 38 µM | 15 µM | 28.2 µM | 10.3 µM | 29 µM | 11 µM | 28.3 µM | 6.04 µM | 28.5 µM
